From patent US20110008475A1, “USE OF AN EMULSION OF MINT OIL OR OF L-CARVONE FOR THE FUNGICIDAL TREATMENT OF FRUIT, VEGETABLES OR PLANTS” (priority 2007, published 2011) come the findings set out here.

For this test, the system named is Peronospora brassicae (cabbage mildew). The test is described as follows: Effect of L-carvone on cabbage mildew (infected cabbages treated after inoculation). The format is in vivo. The conditions noted are these: cabbages infected with Peronospora brassicae, treated rapidly after inoculation; L-carvone at a minimal concentration of 1%; 21 days; FIG. 1. The source says: Cabbages were infected with Peronospora brassicae (cabbage mildew) then treated rapidly after inoculation with L-carvone or Aliette.

As to `C=C(C)C1CC=C(C)C(=O)C1` [L-carvone, 2-methyl-5-(1-methylethenyl)-2-cyclohexen-1-one], the “control of the infection by cabbage mildew” value was “able to control the infection effectively for 21 days”.
